Positions of bridges follow the written chain, without caps; N, C: chain ends. Non-standard residues stand in square brackets, D forms with d. Residues, ends and D or L forms follow the SMILES beside them. Bip(4'-COOH) = N[C@@H](Cc1ccc(-c2ccc(C(=O)O)cc2)cc1)C(=O)O; Bip(4'-NHAc) = CC(=O)Nc1ccc(-c2ccc(C[C@H](N)C(=O)O)cc2)cc1; Ala(morpholin-4-yl) = N[C@@H](CN1CCOCC1)C(=O)O; Bip = N[C@@H](Cc1ccc(-c2ccccc2)cc1)C(=O)O; Morpholine(3S-CO) = O=C(O)[C@@H]1COCCN1; Bta = N[C@@H](Cc1csc2ccccc12)C(=O)O; Val(3-OH) = CC(C)(O)[C@H](N)C(=O)O; hArg = N=C(N)NCCCC[C@H](N)C(=O)O; Pip = O=C(O)[C@@H]1CCCCN1; Nle = CCCC[C@H](N)C(=O)O; Aze = O=C(O)[C@@H]1CCN1; Abu = CC[C@H](N)C(=O)O; Sar = CNCC(=O)O

The text below walks through data of patent US20250145665A1, “MACROCYCLIC PEPTIDES USEFUL AS MODULATORS OF TNF ALPHA” (Bristol-Myers Squibb Company, priority 2023, published 2025).

For the test, the target named is TNFα (Homo sapiens, UniProt P01375). As to the kind of experiment: TNF-Induced HEK-Blue Assay. Format: cell-based. As to conditions: HEK-Blue-CD40L cells, NF-kB-driven secreted alkaline phosphatase reporter; TNFα 0.5 ng/ml; 18 h; read-out: TNF induced HEK-Blue assay IC50 value.
TNFα, sequence (P01375 77-233 limits assumed): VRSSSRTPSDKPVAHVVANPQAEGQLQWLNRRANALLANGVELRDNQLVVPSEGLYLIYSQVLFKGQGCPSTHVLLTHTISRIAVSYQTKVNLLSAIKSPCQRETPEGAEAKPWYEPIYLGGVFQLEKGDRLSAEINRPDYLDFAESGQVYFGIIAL
In general, IC50 refers to the concentration at which inhibition is half-maximal. Take `CC(C)C[C@@H]1NC(=O)[C@H](Cc2csc3ccccc23)NC(=O)[C@H](C(C)C)NC(=O)[C@@H]2CCCN2C(=O)[C@H](C(C)C)NC(=O)[C@@H](CCCNC(=N)N)NC(=O)[C@H](CC(=O)O)NC(=O)[C@H](Cc2ccc(O)cc2)NC(=O)CN(C)C(=O)[C@H](Cc2ccc(-c3ccccc3)cc2)NC(=O)[C@H](Cc2ccc(-c3ccccc3)cc2)NC(=O)[C@H](CN2CCOCC2)NC(=O)CSC[C@@H](C(=O)NCC(N)=O)NC1=O` [Example 158] ({CH2CO}-[Ala(morpholin-4-yl)][Bip][Bip][Sar]YD[dR]VPV[Bta]LCG-NH2; thioether N-13): the IC50 is 200 to 2000 nM.

As to `CC(C)C[C@@H]1NC(=O)[C@H](CCCCNC(=N)N)NC(=O)[C@H](C(C)C)NC(=O)[C@@H]2CCCN2C(=O)[C@H](C(C)C)NC(=O)[C@@H](CCCNC(=N)N)NC(=O)[C@H](CC(=O)O)NC(=O)[C@H](Cc2ccc(O)cc2)NC(=O)CN(C)C(=O)[C@H](Cc2ccc(-c3ccccc3)cc2)NC(=O)[C@H](Cc2ccc(-c3ccccc3)cc2)NC(=O)[C@H](CN2CCOCC2)NC(=O)CSC[C@@H](C(=O)NCC(N)=O)NC1=O` [Example 159] ({CH2CO}-[Ala(morpholin-4-yl)][Bip][Bip][Sar]YD[dR]VPV[hArg]LCG-NH2; thioether N-13), the IC50 is less than 50 nM.

As to `CC(=O)Nc1ccc(-c2ccc(C[C@@H]3NC(=O)[C@H](Cc4ccc(-c5ccccc5)cc4)NC(=O)[C@H](CN4CCOCC4)NC(=O)CSC[C@@H](C(=O)NCC(N)=O)NC(=O)[C@H](CC(C)C)NC(=O)[C@H](CCCNC(=N)N)NC(=O)[C@H](C(C)(C)O)NC(=O)[C@@H]4CCCN4C(=O)[C@H](C(C)C)NC(=O)[C@@H](CCCNC(=N)N)NC(=O)[C@H](CC(=O)O)NC(=O)[C@@H]4CCCN4C(=O)CN(C)C3=O)cc2)cc1` [Example 160] ({CH2CO}-[Ala(morpholin-4-yl)][Bip][Bip(4'-NHAc)][Sar]PD[dR]VP[Val(3-OH)]RLCG-NH2; thioether N-13), the IC50 is 50 to 200 nM.

`CC[C@@H]1NC(=O)[C@@H]2CCCN2C(=O)[C@H](C(C)C)NC(=O)[C@@H](CCCNC(=N)N)NC(=O)[C@H](CC(=O)O)NC(=O)[C@H](Cc2ccc(O)cc2)NC(=O)CN(C)C(=O)[C@H](Cc2ccc(-c3ccccc3)cc2)NC(=O)[C@H](Cc2ccc(-c3ccccc3)cc2)NC(=O)[C@H](CN2CCOCC2)NC(=O)CSC[C@@H](C(=O)NCC(N)=O)NC(=O)[C@H](CC(C)C)NC(=O)[C@H](Cc2ccc(O)cc2)NC1=O` [Example 161] ({CH2CO}-[Ala(morpholin-4-yl)][Bip][Bip][Sar]YD[dR]VP[Abu]YLCG-NH2; thioether N-13): the IC50 lay within 50 to 200 nM.

In the case of `CC(C)C[C@@H]1NC(=O)[C@H](Cc2ccc(O)cc2)NC(=O)[C@H](C)NC(=O)[C@@H]2CCCN2C(=O)[C@H](C(C)C)NC(=O)[C@@H](CCCNC(=N)N)NC(=O)[C@H](CC(=O)O)NC(=O)[C@H](Cc2ccc(O)cc2)NC(=O)CN(C)C(=O)[C@H](Cc2ccc(-c3ccccc3)cc2)NC(=O)[C@H](Cc2ccc(-c3ccccc3)cc2)NC(=O)[C@H](CN2CCOCC2)NC(=O)CSC[C@@H](C(=O)NCC(N)=O)NC1=O` [Example 162] ({CH2CO}-[Ala(morpholin-4-yl)][Bip][Bip][Sar]YD[dR]VPAYLCG-NH2; thioether N-13), the IC50 lay within 50 to 200 nM.

Regarding `CCCC[C@@H]1NC(=O)[C@@H]2CCCN2C(=O)[C@H](C(C)C)NC(=O)[C@@H](CCCNC(=N)N)NC(=O)[C@H](CC(=O)O)NC(=O)[C@H](Cc2ccc(O)cc2)NC(=O)CN(C)C(=O)[C@H](Cc2ccc(-c3ccccc3)cc2)NC(=O)[C@H](Cc2ccc(-c3ccccc3)cc2)NC(=O)[C@H](CN2CCOCC2)NC(=O)CSC[C@@H](C(=O)NCC(N)=O)NC(=O)[C@H](CC(C)C)NC(=O)[C@H](Cc2ccc(O)cc2)NC1=O` [Example 163] ({CH2CO}-[Ala(morpholin-4-yl)][Bip][Bip][Sar]YD[dR]VP[Nle]YLCG-NH2; thioether N-13), the IC50 lay in the range of 200 to 2000 nM.

`CC(=O)Nc1ccc(-c2ccc(C[C@@H]3NC(=O)[C@H](Cc4ccc(-c5ccc(C(=O)O)cc5)cc4)NC(=O)[C@H](CN4CCOCC4)NC(=O)CSC[C@@H](C(=O)NCC(N)=O)NC(=O)[C@H](CC(C)C)NC(=O)[C@H](Cc4ccc(O)cc4)NC(=O)[C@H](C(C)C)NC(=O)[C@@H]4CCCN4C(=O)[C@H](C(C)C)NC(=O)[C@@H](CCCNC(=N)N)NC(=O)[C@H](CC(=O)O)NC(=O)[C@H](Cc4ccc(O)cc4)NC(=O)CN(C)C3=O)cc2)cc1` [Example 164] ({CH2CO}-[Ala(morpholin-4-yl)][Bip(4'-COOH)][Bip(4'-NHAc)][Sar]YD[dR]VPVYLCG-NH2; thioether N-13): the IC50 was less than 50 nM.

Consider `CC(=O)Nc1ccc(-c2ccc(C[C@@H]3NC(=O)[C@H](Cc4ccc(-c5ccc(C(=O)O)cc5)cc4)NC(=O)[C@H](CN4CCOCC4)NC(=O)CSC[C@@H](C(=O)NCC(N)=O)NC(=O)[C@H](CC(C)C)NC(=O)[C@H](CCCNC(=N)N)NC(=O)[C@H](C(C)C)NC(=O)[C@@H]4CCCN4C(=O)[C@H](C(C)C)NC(=O)[C@@H](CCCNC(=N)N)NC(=O)[C@H](CC(=O)O)NC(=O)[C@@H]4CCCN4C(=O)CN(C)C3=O)cc2)cc1` [Example 165] ({CH2CO}-[Ala(morpholin-4-yl)][Bip(4'-COOH)][Bip(4'-NHAc)][Sar]PD[dR]VPVRLCG-NH2; thioether N-13), for which the IC50 was less than 50 nM.

In the case of `CC(=O)Nc1ccc(-c2ccc(C[C@@H]3NC(=O)[C@H](Cc4ccc(-c5ccc(C(=O)O)cc5)cc4)NC(=O)[C@H](CN4CCOCC4)NC(=O)CSC[C@@H](C(=O)NCC(N)=O)NC(=O)[C@H](CC(C)C)NC(=O)[C@H](Cc4ccc(O)cc4)NC(=O)[C@H](C(C)C)NC(=O)[C@@H]4CCN4C(=O)[C@H](C(C)C)NC(=O)[C@@H](CCCNC(=N)N)NC(=O)[C@H](CC(=O)O)NC(=O)[C@H](Cc4ccc(O)cc4)NC(=O)CN(C)C3=O)cc2)cc1` [Example 166] ({CH2CO}-[Ala(morpholin-4-yl)][Bip(4'-COOH)][Bip(4'-NHAc)][Sar]YD[dR]V[Aze]VYLCG-NH2; thioether N-13), the IC50 was less than 50 nM.

For `CC(=O)Nc1ccc(-c2ccc(C[C@@H]3NC(=O)[C@H](Cc4ccc(-c5ccc(C(=O)O)cc5)cc4)NC(=O)[C@H](CN4CCOCC4)NC(=O)CSC[C@@H](C(=O)NCC(N)=O)NC(=O)[C@H](CC(C)C)NC(=O)[C@H](Cc4ccc(O)cc4)NC(=O)[C@H](C(C)C)NC(=O)[C@@H]4COCCN4C(=O)[C@H](C(C)C)NC(=O)[C@@H](CCCNC(=N)N)NC(=O)[C@H](CC(=O)O)NC(=O)[C@H](Cc4ccc(O)cc4)NC(=O)CN(C)C3=O)cc2)cc1` [Example 167] ({CH2CO}-[Ala(morpholin-4-yl)][Bip(4'-COOH)][Bip(4'-NHAc)][Sar]YD[dR]V[Morpholine(3S-CO)]VYLCG-NH2; thioether N-13), the IC50 fell in the range of 50 to 200 nM.

For the molecule `CC(=O)Nc1ccc(-c2ccc(C[C@@H]3NC(=O)[C@H](Cc4ccc(-c5ccc(C(=O)O)cc5)cc4)NC(=O)[C@H](CN4CCOCC4)NC(=O)CSC[C@@H](C(=O)NCC(N)=O)NC(=O)[C@H](CC(C)C)NC(=O)[C@H](Cc4ccc(O)cc4)NC(=O)[C@H](C(C)C)NC(=O)[C@@H]4CCCCN4C(=O)[C@H](C(C)C)NC(=O)[C@@H](CCCNC(=N)N)NC(=O)[C@H](CC(=O)O)NC(=O)[C@H](Cc4ccc(O)cc4)NC(=O)CN(C)C3=O)cc2)cc1` [Example 168] ({CH2CO}-[Ala(morpholin-4-yl)][Bip(4'-COOH)][Bip(4'-NHAc)][Sar]YD[dR]V[Pip]VYLCG-NH2; thioether N-13), the IC50 is less than 50 nM.
